A short description of the data set: Determination of stability of vitamin K2 microcapsules (light, oxygen, high temperature). Type of data set: physicochemical. As for the experimental part:
(2) Test Method The samples and the reference samples were respectively put into sealed colorless and transparent vials, and placed under the conditions of 4500Lx light intensity irradiation, oxygen filling (25° C.), and stored at 60° C. (incubator) for 15 days, respectively; and they were subjected to sampling on Day 0, Day 5, Day 10, Day 15, and VK2 contents thereof were determined by USP method. The effects of light, oxygen, and temperature conditions on the labeled content (%) of VK2 were investigated.

Turning to Vitamin K2 [Reference sample 4], the “Labeled content of VK2 (%)” value is given as 100.0% (60° C. (incubator), Day 0); 96.2% (60° C. (incubator), Day 5); 94.8% (60° C. (incubator), Day 10); 90.4% (60° C. (incubator), Day 15); 100.0% (4500 Lx illumination, Day 0); 89.2% (4500 Lx illumination, Day 5). In addition, the “Labeled content of VK2 (%)” value is, setting by setting: (4500 Lx illumination, Day 10) 74.3%; (4500 Lx illumination, Day 15) 60.3%; (Oxygen filling (25° C.), Day 0) 100.0%; (Oxygen filling (25° C.), Day 5) 93.5%; (Oxygen filling (25° C.), Day 10) 89.4%; (Oxygen filling (25° C.), Day 15) 81.2%.

Values taken from patent US12245993B2, “Vitamin K2 microcapsule, preparation method thereof and use thereof in manufacture of medicament for preventing or treating cardiovascular and cerebrovascular diseases” (Xiamen Kingdomway Biotech. Co., Ltd., priority 2020, dated 2025).
